In the NIST ThermoML archive (doi:10.1021/je050460d):

Test: xn = mol fraction of the nth substance listed
Conditions: 101 kPa, Liquid; for viscosity: Capillary tube (Ostwald / Ubbelohde) method; for mass density: Vibrating tube method

CCCCn1cc[n+](C)c1.[Cl-] [1-butyl-3-methylimidazolium chloride] + O
Conditions	mass density, 298.15 K [kg/m3]	mass density, 313.15 K [kg/m3]	mass density, 328.15 K [kg/m3]	mass density, 343.15 K [kg/m3]	viscosity, 298.15 K [mPa·s]	viscosity, 313.15 K [mPa·s]	viscosity, 328.15 K [mPa·s]	viscosity, 343.15 K [mPa·s]
x2 = 0.5666	1081	1072	1063.4	1054.7	123.5	56.63	30.04	17.69
x2 = 0.607	1079.9	1070.8	1062	1053.1	72.16	35.36	19.75	12.2
x2 = 0.6933	1076.5	1067.2	1058.1	1048.8	35.66	18.94	11.32	7.386
x2 = 0.7698	1071.1	1061.5	–	–	18.08	10.11	–	–
x2 = 0.7699	–	–	1052.1	1042.4	–	–	6.474	4.419
x2 = 0.8279	1063.8	1054.1	1044.5	1034.4	10.19	6.125	4.019	2.858
x2 = 0.8674	1057.1	1047.1	1037.3	1027.1	6.628	4.123	2.795	2.043
x2 = 0.9194	1042.3	1032.8	1023.3	1013.1	3.543	2.311	1.635	1.228
x2 = 0.9625	1022.3	1014	1006.1	996.7	1.886	1.297	0.955	0.741
x2 = 0.9885	1005.2	999.1	989.3	979.6	1.175	0.955	0.753	0.652

CCCCCCn1cc[n+](C)c1.[Cl-] [1-hexyl-3-methylimidazolium chloride] + O
Conditions	mass density, 298.15 K [kg/m3]	mass density, 313.15 K [kg/m3]	mass density, 328.15 K [kg/m3]	mass density, 343.15 K [kg/m3]	viscosity, 298.15 K [mPa·s]	viscosity, 313.15 K [mPa·s]	viscosity, 328.15 K [mPa·s]	viscosity, 343.15 K [mPa·s]
x2 = 0	1039.67	1031.13	1022.69	1014.34	18089	3429	942.1	339.5
x2 = 0.1274	1040.45	1031.89	1023.44	1015.06	7667	1746	516.4	207.4
x2 = 0.3173	1040.7	1032.22	1023.8	1015.5	1020	393.5	165.7	79.07
x2 = 0.3906	1040.95	1032.63	1024.3	1015.77	499.4	188.9	86.76	45.52
x2 = 0.5594	1041.4	1032.76	1024.14	1015.4	201.2	88.11	44.87	25.37
x2 = 0.7127	1038.77	1029.8	1020.75	1011.45	60.75	30.04	16.83	10.39
x2 = 0.783	1035.72	1026.67	1017.17	1007.71	33.79	17.49	10.17	6.542
x2 = 0.8935	1025.28	1016.2	1006.79	997	8.688	5.191	3.367	2.358
x2 = 0.9417	1018.17	1009.43	1000.13	990.26	3.505	2.323	1.649	1.224

CCCCCCCC[n+]1ccn(C)c1.[Cl-] [1-methyl-3-octylimidazolium chloride] + O
Conditions	mass density, 298.15 K [kg/m3]	mass density, 313.15 K [kg/m3]	mass density, 328.15 K [kg/m3]	mass density, 343.15 K [kg/m3]	viscosity, 298.15 K [mPa·s]	viscosity, 313.15 K [mPa·s]	viscosity, 328.15 K [mPa·s]	viscosity, 343.15 K [mPa·s]
x2 = 0	1008.82	1000.2	991.67	983.24	20883	4066	1091	387.2
x2 = 0.1484	1009.61	1000.98	992.42	983.87	5570	1470	484.6	200.1
x2 = 0.203	1009.99	1001.35	992.77	984.21	3815	1097	393.5	165.4
x2 = 0.4076	1011.83	1003.2	994.4	985.6	1325	387.9	170.8	84.75
x2 = 0.5334	1012.7	1003.76	994.81	985.96	921.1	337.9	147.7	74.31
x2 = 0.6807	1012.37	1003.16	993.98	984.8	433	175.5	83.26	44.23
x2 = 0.8185	1009.16	1000.09	990.76	981.11	193.4	83.87	42.22	24.22
x2 = 0.8803	1006.63	997.6	988.16	978.39	80.77	38.02	20.45	12.17
x2 = 0.9307	1003.69	995.12	985.89	976.15	22.48	13.27	8.18	5.33
x2 = 0.9635	1001.1	993.58	985.06	975.71	5.71	4.25	3.3	2.65
